Experimental data from BindingDB's records for doi:10.1016/j.bmcl.2012.12.028 (Pfizer, 2013).

Target: T1, P-selectin (Homo sapiens, UniProt P16109)
T1 sequence (P16109 whole entry): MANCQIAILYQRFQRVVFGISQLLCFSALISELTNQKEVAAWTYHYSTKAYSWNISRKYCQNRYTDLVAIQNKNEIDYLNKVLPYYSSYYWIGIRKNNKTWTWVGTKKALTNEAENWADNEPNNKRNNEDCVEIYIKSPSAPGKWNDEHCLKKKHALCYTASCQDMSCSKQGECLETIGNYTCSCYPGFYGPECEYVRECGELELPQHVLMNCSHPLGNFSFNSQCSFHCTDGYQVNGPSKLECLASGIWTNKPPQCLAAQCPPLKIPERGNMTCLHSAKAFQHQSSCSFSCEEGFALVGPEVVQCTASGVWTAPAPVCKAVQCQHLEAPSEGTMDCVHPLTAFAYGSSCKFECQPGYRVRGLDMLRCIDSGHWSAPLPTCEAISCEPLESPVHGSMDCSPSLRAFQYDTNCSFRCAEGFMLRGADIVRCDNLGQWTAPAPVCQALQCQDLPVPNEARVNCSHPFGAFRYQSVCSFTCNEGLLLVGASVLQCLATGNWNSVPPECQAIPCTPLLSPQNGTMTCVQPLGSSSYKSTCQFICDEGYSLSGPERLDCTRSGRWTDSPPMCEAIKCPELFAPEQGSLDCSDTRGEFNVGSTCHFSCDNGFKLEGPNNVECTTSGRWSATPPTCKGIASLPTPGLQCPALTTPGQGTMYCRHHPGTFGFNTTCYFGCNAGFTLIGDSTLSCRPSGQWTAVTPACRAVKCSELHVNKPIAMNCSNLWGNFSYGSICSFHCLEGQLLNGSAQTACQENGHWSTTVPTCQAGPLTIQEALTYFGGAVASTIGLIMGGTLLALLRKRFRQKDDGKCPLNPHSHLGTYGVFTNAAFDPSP
Experiment: Inhibition of P-selectin aggregation in platelet surface (unknown origin)

IC50 | Compound
7.4 µM | O=C(NCCCN1CCOC1=O)c1cnc(NCc2cc(Cl)ccc2Cl)nc1NC1CCCC1
3.1 µM | O=C(NCCCN1CCCC1=O)c1cnc(NCc2cc(Cl)ccc2Cl)nc1NC1CCCC1
17 µM | COc1ccccc1CNc1ncc(C(=O)NCCCN2CCCC2=O)c(NC2CCCC2)n1
1.5 µM | COc1ccccc1CNc1ncc(C(=O)NC2CCN(C)CC2)c(NC2CCCC2)n1
1 µM | Cc1cc(-c2cnc(Nc3cc(Cl)cc(Cl)c3)nc2NC2CCC(N(C)C)CC2)on1 (stereo not given)
2.2 µM | CN1CCC(NC(=O)c2cnc(Nc3cc(Cl)cc(Cl)c3)nc2N[C@@H]2COC[C@H]2O)CC1
0.4 µM | CN1CCC(NC(=O)c2cnc(Nc3cc(Cl)cc(Cl)c3)nc2NC2CCC(N(C)C)CC2)CC1 (stereo not given)
1.2 µM | CN1CCC(NC(=O)c2cnc(NCc3cc(Cl)ccc3Cl)nc2NC2CCCC2)CC1
3.9 µM | O[C@@H]1COC[C@H]1Nc1nc(Nc2cc(Cl)cc(Cl)c2)ncc1Br
> 80 µM | O[C@@H]1COC[C@H]1Nc1nc(Nc2cc(Cl)cc(Cl)c2)ncc1-c1ccc(F)cc1
3 µM | O[C@@H]1COC[C@H]1Nc1nc(Nc2cc(Cl)cc(Cl)c2)ncc1-c1cccnc1
1.6 µM | Cc1cc(-c2cnc(Nc3cc(Cl)cc(Cl)c3)nc2NC2CCNCC2)on1
0.58 µM | CC[C@@H](CO)Nc1nc(Nc2cc(Cl)cc(Cl)c2)ncc1C(=O)NC1CCN(C)CC1
0.43 µM | CN1CCC(NC(=O)c2cnc(Nc3cc(Cl)cc(Cl)c3)nc2N[C@H]2CCCCNC2=O)CC1
1.2 µM | CN1CCC(NC(=O)c2cnc(Nc3cc(Cl)cc(Cl)c3)nc2NC2CCOCC2)CC1
1.1 µM | CN1CCC(NC(=O)c2cnc(NCc3cc(Cl)ccc3Cl)nc2NC2CCC(N(C)C)CC2)CC1 (stereo not given)
> 80 µM | CN1CCC(NC(=O)c2cnc(NCc3cc(Cl)ccc3Cl)nc2NC2CCNCC2)CC1
7.1 µM | COc1ccccc1CNc1ncc(C(=O)NCCCCN(C)C)c(NC2CCCC2)n1
6.6 µM | COc1ccccc1CNc1ncc(C(=O)NCCNC(C)=O)c(NC2CCCC2)n1
10 µM | COc1ccccc1CNc1ncc(C(=O)NCCCO)c(NC2CCCC2)n1
